Our source for the Dmax and DC50 values is patent publication US12448399B2, “Cereblon-based KRAS degrading PROTACs and uses related thereto” (Arvinas Operations, Inc., priority 2023, dated 2025).

Molecules are shown by their SMILES.

For the first assay, the target named is T1, KRas-G12D (Homo sapiens, UniProt P01116, G12D).
T1 construct: insert the HiBiT tag onto the N-terminus of one or more of the endogenous KRas alleles; host or cells: AsPC-1 HiBiT-KRasG12D knock-in clone (one tagged allele, two untagged KRasG12D alleles)
T1 sequence (P01116 1-188 isoform P01116-2 G12D): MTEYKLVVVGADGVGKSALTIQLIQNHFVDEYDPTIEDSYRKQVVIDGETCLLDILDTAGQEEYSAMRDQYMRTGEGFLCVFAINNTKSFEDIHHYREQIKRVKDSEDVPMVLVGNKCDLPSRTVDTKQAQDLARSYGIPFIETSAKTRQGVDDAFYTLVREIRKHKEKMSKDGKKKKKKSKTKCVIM
In words: HiBiT Degradation Assay (G12D), AsPC-1 HiBiT-KRasG12D cells, 24 hr. It counts as cell-based. Conditions: ASPC1, AsPC-1 cells, maximum degradation observed. The procedure:
AsPC-1 (CRL-1682) cells were purchased from ATCC and are homozygous for the G12D mutation in KRas. AsPC-1 cells were cultured in GIBCO RPMI-1640 (ThermoFisher Scientific, catalog #61870-036, with Glutamax, no HEPES, no Na Pyruvate) supplemented with 10% FBS (ThermoFisher Scientific, catalog #2060357) and 1× Penicillin-Streptomycin (ThermoFisher Scientific, catalog #15140122, 10000 U/ml, 100×). For degradation assays, 384 well plates were used. Alamar blue was purchased from ThermoFisher Scientific (A50101) and used according to manufacturer instructions. The Nano-Glo® HiBiT Lytic Detection System and Nano-Glo® HiBiT Blotting System were purchased from Promega (#N3050 and #N2410) and used according to manufacturer instructions.
To create the AsPC-1 HiBiT-KRasG12D cell line, CRISPR-Cas9 was used to insert the HiBiT tag onto the N-terminus of one or more of the endogenous KRas alleles. See Schwinn, M. K. et al. (2018) CRISPR-mediated tagging of endogenous proteins with a luminescent peptide, ACS Chem. Biol. 13(2), 467-474. After knock-in of the tag, individual clones were isolated by single cell dilution and screened for HiBiT insertion by PCR. A clone was identified that contained the desired HiBiT-KRasG12D sequence at one allele while the remaining two KRasG12D alleles were untagged. This clone was used in further studies.
AsPC-1 HiBiT-KRasG12D cells were plated at 9000 or 15,000 cells/well in a 384 well plate (Corning #3770). Compounds of the present disclosure and positive controls were diluted in the appropriate cell media and applied to the plated cells resulting in a final concentration titration of 10 μM to […] in 0.5% DMSO. Gambogic acid was used as a positive control for cytotoxicity and titrated from 10 μM to 78 nM. All assays were performed in triplicate. Cells were treated with compounds for 24 hr at 37° C. in an incubator containing 5% CO2. Following treatment, alamar blue was used to determine if any compounds led to a loss in cell viability after 24 hr. The 10× alamar blue reagent was added to a final concentration of 1× as recommended by the manufacturer and cells were returned to the incubator for 4 hr. Plates were then allowed to equilibrate to RT and fluorescence was measured using a Perkin-Elmer EnVision. After completion of the fluorescence read, the liquid from each well was removed and the cells were washed with PBS. The Nano-Glo® HiBiT detection reagent was prepared according to the manufacturer's instructions and added to each well after the PBS wash was removed. Following incubation at room temperature for 45 min, the luminescence was read using the ultra-sensitive luminescence aperture on the Envision instrument.
Fluorescence values from the alamar blue treatment were normalized to the DMSO-only control for each compound titration. HiBiT luminescence was normalized to the DMSO-only control and the fractional HiBiT signal was plotted versus the log of the PROTAC concentration and fit to a 4-parameter dose-response model to obtain the concentration of the compound that leads to half maximal degradation (DC50) as well as the maximum degradation observed (Dmax, conventionally expressed as a percentage of control).
A general note: With HiBiT, luminescence reflects the tagged protein that the partner subunit can reach.
A word on the Dmax: it is the largest share of the target that was removed. As for `CCc1cccc2cc(O)cc(-c3ncc4c(N5CC6CCC(C5)N6)nc(OC[C@@]56CCCN5[C@H](COC(=O)N5CCN(c7cccc8c7CN(C7CCC(=O)N(C)C7=O)C8=O)CC5)CC6)nc4c3F)c12` (stereo partly drawn) [Compound 52, [(3S,8S)-8-[[4-(3,8-diazabicyclo[3.2.1]octan-3-yl)-7-(8-ethyl-3-hydroxy-1-naphthyl)-8-fluoro-pyrido[4,3-d]pyrimidin-2-yl]oxymethyl]-1,2,3,5,6,7-hexahydropyrrolizin-3-yl]methyl 4-[2-(1-methyl-2,6-dioxo-3-piperidyl)-1-oxo-isoindolin-4-yl]piperazine-1-carboxylate], the maximal degradation (Dmax) was not above 25%.

Turning to `CCc1cccc2cc(O)cc(-c3ncc4c(N5CC6CCC(C5)N6)nc(OC[C@]56CCCN5[C@@H](COC(=O)N5CCN(c7cccc8c7CN(C7CCC(=O)N(C)C7=O)C8=O)CC5)CC6)nc4c3F)c12` (stereo partly drawn) [Compound 54, [(3R,8R)-8-[[4-(3,8-diazabicyclo[3.2.1]octan-3-yl)-7-(8-ethyl-3-hydroxy-1-naphthyl)-8-fluoro-pyrido[4,3-d]pyrimidin-2-yl]oxymethyl]-1,2,3,5,6,7-hexahydropyrrolizin-3-yl]methyl4-[2-(1-methyl-2,6-dioxo-3-piperidyl)-1-oxo-isoindolin-4-yl]piperazine-1-carboxylate], the Dmax is not above 25%.

Still in this assay, the particulars now being: AsPC-1 cells.
Broadly, the DC50 is the concentration giving 50% degradation. A low value points to degradation at low concentration. Take `CCc1cccc2cc(O)cc(-c3ncc4c(N5CC6CCC(C5)N6C)nc(OC[C@]56CCCN5[C@@H](COC(=O)N5CCN(c7cccc8c7CN(C7CCC(=O)NC7=O)C8=O)CC5)CC6)nc4c3F)c12` (stereo partly drawn) [Compound 51, [(3R,8R)-8-[[7-(8-ethyl-3-hydroxy-1-naphthyl)-8-fluoro-4-(8-methyl-3,8-diazabicyclo[3.2.1]octan-3-yl)pyrido[4,3-d]pyrimidin-2-yl]oxymethyl]-1,2,3,5,6,7-hexahydropyrrolizin-3-yl]methyl4-[2-(2,6-dioxo-3-piperidyl)-1-oxo-isoindolin-4-yl]piperazine-1-carboxylate]: the DC50 was more than 1000 nM.

For the molecule `CCc1cccc2cc(O)cc(-c3ncc4c(N5CC6CCC(C5)N6)nc(OC[C@@]56CCCN5[C@H](COC(=O)N5CCN(c7cccc8c7CN(C7CCC(=O)N(C)C7=O)C8=O)CC5)CC6)nc4c3F)c12` (stereo partly drawn) [Compound 52, [(3S,8S)-8-[[4-(3,8-diazabicyclo[3.2.1]octan-3-yl)-7-(8-ethyl-3-hydroxy-1-naphthyl)-8-fluoro-pyrido[4,3-d]pyrimidin-2-yl]oxymethyl]-1,2,3,5,6,7-hexahydropyrrolizin-3-yl]methyl 4-[2-(1-methyl-2,6-dioxo-3-piperidyl)-1-oxo-isoindolin-4-yl]piperazine-1-carboxylate], the DC50 lay in the range of 250 to 1000 nM.

Regarding `CCc1cccc2cc(O)cc(-c3ncc4c(N5CC6CCC(C5)N6)nc(OC[C@]56CCCN5[C@@H](COC(=O)N5CCN(c7ccc8c(c7)CN(C7CCC(=O)N(C)C7=O)C8=O)CC5)CC6)nc4c3F)c12` (stereo partly drawn) [Compound 53, [(3R,8R)-8-[[4-(3,8-diazabicyclo[3.2.1]octan-3-yl)-7-(8-ethyl-3-hydroxy-1-naphthyl)-8-fluoro-pyrido[4,3-d]pyrimidin-2-yl]oxymethyl]-1,2,3,5,6,7-hexahydropyrrolizin-3-yl]methyl4-[2-(1-methyl-2,6-dioxo-3-piperidyl)-1-oxo-isoindolin-5-yl]piperazine-1-carboxylate], the DC50 was in the range of 100 to 5250 nM.

`CCc1cccc2cc(O)cc(-c3ncc4c(N5CC6CCC(C5)N6)nc(OC[C@]56CCCN5[C@@H](COC(=O)N5CCN(c7cccc8c7CN(C7CCC(=O)N(C)C7=O)C8=O)CC5)CC6)nc4c3F)c12` (stereo partly drawn) [Compound 54, [(3R,8R)-8-[[4-(3,8-diazabicyclo[3.2.1]octan-3-yl)-7-(8-ethyl-3-hydroxy-1-naphthyl)-8-fluoro-pyrido[4,3-d]pyrimidin-2-yl]oxymethyl]-1,2,3,5,6,7-hexahydropyrrolizin-3-yl]methyl4-[2-(1-methyl-2,6-dioxo-3-piperidyl)-1-oxo-isoindolin-4-yl]piperazine-1-carboxylate] had a 50% degradation concentration (DC50) of 250 to 1000 nM.

For the molecule `CCc1cccc2cc(O)cc(-c3ncc4c(N5CC6CCC(C5)N6)nc(OCCN5CCC(CC6CCN(CC7CCN(c8cccc9c8CN(C8CCC(=O)NC8=O)C9=O)CC7)CC6)CC5)nc4c3F)c12` (centres unmarked) [Compound 55, 3-[4-[4-[[4-[[1-[2-[4-(3,8-diazabicyclo[3.2.1]octan-3-yl)-7-(8-ethyl-3-hydroxy-1-naphthyl)-8-fluoro-pyrido[4,3-d]pyrimidin-2-yl]oxyethyl]-4-piperidyl]methyl]-1-piperidyl]methyl]-1-piperidyl]-1-oxo-isoindolin-2-yl]piperidine-2,6-dione], the DC50 was less than 5100 nM.

`CCc1cccc2cc(O)cc(-c3ncc4c(N5CC6CCC(C5)N6)nc(OCCN5CCC(CC6CCN(c7cccc8c7CN(C7CCC(=O)NC7=O)C8=O)CC6)CC5)nc4c3F)c12` (centres unmarked) [Compound 56, 3-[4-[4-[[1-[2-[4-(3,8-diazabicyclo[3.2.1]octan-3-yl)-7-(8-ethyl-3-hydroxy-1-naphthyl)-8-fluoro-pyrido[4,3-d]pyrimidin-2-yl]oxyethyl]-4-piperidyl]methyl]-1-piperidyl]-1-oxo-isoindolin-2-yl]piperidine-2,6-dione] came in with a DC50 of 250 to 1000 nM.

`CCc1cccc2cc(O)cc(-c3ncc4c(N5CC6CCC(C5)N6)nc(OCCN5CCC(CC6CCN(CC7CCN(c8cccc9c8C(=O)N(C8CCC(=O)NC8=O)C9=O)CC7)CC6)CC5)nc4c3F)c12` (centres unmarked) [Compound 57, 4-[4-[[4-[[1-[2-[4-(3,8-diazabicyclo[3.2.1]octan-3-yl)-7-(8-ethyl-3-hydroxy-1-naphthyl)-8-fluoro-pyrido[4,3-d]pyrimidin-2-yl]oxyethyl]-4-piperidyl]methyl]-1-piperidyl]methyl]-1-piperidyl]-2-(2,6-dioxo-3-piperidyl)isoindoline-1,3-dione] had a DC50 of 100 to 5250 nM.

In the case of `CCc1cccc2cc(O)cc(-c3ncc4c(N5CC6CCC(C5)N6)nc(OC[C@@]56CCCN5[C@H](COC(=O)N5CCN(c7ccc8c(c7)CN(C7CCC(=O)NC7=O)C8=O)CC5)CC6)nc4c3F)c12` (stereo partly drawn) [Compound 58, [(3S,8S)-8-[[4-(3,8-diazabicyclo[3.2.1]octan-3-yl)-7-(8-ethyl-3-hydroxy-1-naphthyl)-8-fluoro-pyrido[4,3-d]pyrimidin-2-yl]oxymethyl]-1,2,3,5,6,7-hexahydropyrrolizin-3-yl]methyl 4-[2-(2,6-dioxo-3-piperidyl)-1-oxo-isoindolin-5-yl]piperazine-1-carboxylate], the DC50 was less than 5100 nM.

The molecule `CCc1cccc2cc(O)cc(-c3ncc4c(N5CC6CCC(C5)N6)nc(OC[C@]56CCCN5[C@@H](COC(=O)N5CCN(c7ccc8c(c7)CN(C7CCC(=O)NC7=O)C8=O)CC5)CC6)nc4c3F)c12` (stereo partly drawn) [Compound 59, [(3R,8R)-8-[[4-(3,8-diazabicyclo[3.2.1]octan-3-yl)-7-(8-ethyl-3-hydroxy-1-naphthyl)-8-fluoro-pyrido[4,3-d]pyrimidin-2-yl]oxymethyl]-1,2,3,5,6,7-hexahydropyrrolizin-3-yl]methyl 4-[2-(2,6-dioxo-3-piperidyl)-1-oxo-isoindolin-5-yl]piperazine-1-carboxylate] displayed a DC50 of less than 5100 nM.

On to `CCc1cccc2cc(O)cc(-c3ncc4c(N5CC6CCC(C5)N6)nc(OC[C@@]56CCCN5[C@H](COC(=O)N5CCN(c7cccc8c7CN(C7CCC(=O)NC7=O)C8=O)CC5)CC6)nc4c3F)c12` (stereo partly drawn) [Compound 60, [(3S,8S)-8-[[4-(3,8-diazabicyclo[3.2.1]octan-3-yl)-7-(8-ethyl-3-hydroxy-1-naphthyl)-8-fluoro-pyrido[4,3-d]pyrimidin-2-yl]oxymethyl]-1,2,3,5,6,7-hexahydropyrrolizin-3-yl]methyl 4-[2-(2,6-dioxo-3-piperidyl)-1-oxo-isoindolin-4-yl]piperazine-1-carboxylate], for which the 50% degradation concentration (DC50) lay in the range of 100 to 5250 nM.

For the molecule `CCc1cccc2cc(O)cc(-c3ncc4c(N5CC6CCC(C5)N6)nc(OC[C@]56CCCN5[C@@H](COC(=O)N5CCN(c7cccc8c7CN(C7CCC(=O)NC7=O)C8=O)CC5)CC6)nc4c3F)c12` (stereo partly drawn) [Compound 61, [(3R,8R)-8-[[4-(3,8-diazabicyclo[3.2.1]octan-3-yl)-7-(8-ethyl-3-hydroxy-1-naphthyl)-8-fluoro-pyrido[4,3-d]pyrimidin-2-yl]oxymethyl]-1,2,3,5,6,7-hexahydropyrrolizin-3-yl]methyl 4-[2-(2,6-dioxo-3-piperidyl)-1-oxo-isoindolin-4-yl]piperazine-1-carboxylate], the DC50 is 250 to 1000 nM.

In turn, `CCc1cccc2cc(O)cc(-c3ncc4c(N5CC6CCC(C5)N6)nc(OC[C@@]56CCCN5[C@H](COC(=O)N5CCN(c7ccc8c(c7)C(=O)N(C7CCC(=O)NC7=O)C8=O)CC5)CC6)nc4c3F)c12` (stereo partly drawn) [Compound 62, [(3S,8S)-8-[[4-(3,8-diazabicyclo[3.2.1]octan-3-yl)-7-(8-ethyl-3-hydroxy-1-naphthyl)-8-fluoro-pyrido[4,3-d]pyrimidin-2-yl]oxymethyl]-1,2,3,5,6,7-hexahydropyrrolizin-3-yl]methyl4-[2-(2,6-dioxo-3-piperidyl)-1,3-dioxo-isoindolin-5-yl]piperazine-1-carboxylate] came in with a DC50 of less than 5100 nM.
